For two compounds, EC90 and EC50 results are on record in patent US20030207813A1, “Retroviral protease inhibitor combinations” (priority 1995, published 2003).

Format in all cases: cell-based, HIV-1
In experiment [1] the test system is NL4(G48V). Put plainly: Viral isolate resistance assay per Markowitz et al., NL4(G48V). As to conditions: Human immunodeficiency virus 1, Table 7. The source says:
(§1) RF represents the HIV-1 strain HIV-LRF and RFR represents a mixture of resistant strains obtained by selection of RF against the compound of Example 1. […] RFR2 represents a mixture of resistant strains obtained by cloning RFR by three rounds of growth at limiting dilution. […] RFRR represents a mixture of resistant strains obtained by selection of RF against the compounds of Examples 1 and 2 and then cloning by three rounds of growth at limiting dilution. […] SF162 represents the HIV-1 strain SF-162 and SF162R represents a mixture of resistant strains obtained by selection of SF162 against the compound of Example 1. […] 89-959 represents the HIV-1 strain 89-959 and 89-959R represents a mixture of resistant strains obtained by selection of 89-959 against the compound of Example 2. […] NL4 represents the HIV-1 strain HIV-1NL4-3. NL4(G48V) represents a strain having a synthetically generated site-directed mutation in the protease from glycine to valine at amino acid position number 48. NL4(I84V) represents a strain having a synthetically generated site-directed mutation in the protease from isoleucine to valine at amino acid position number 84. NL4(R8Q,M46I) represents a strain having synthetically generated site-directed mutations in the protease from arginine to glutamine at amino acid position number 8 and methionine to isoleucine at amino acid position number 46.

The test system of experiment [2] is NL4(I84V). Description: Viral isolate resistance assay per Markowitz et al., NL4(I84V). As to conditions: Human immunodeficiency virus 1, Table 7.
Excerpt: as §1

For experiment [3], the system named is NL4(P22-538). Description: Viral isolate resistance assay per Markowitz et al., NL4(P22-538). Conditions: Human immunodeficiency virus 1; Table 9; selected against Example 10, 22 passages; read-out: Virus Isolate (EC50 nM) NL4(P22-538). An excerpt: (§2) RF represents the HIV-1 strain HIV-LRF and RFR represents a mixture of resistant strains obtained by selection of RF against the compound of Example 1. RFR comprises a mixture of viral strains having protease genotypes of G48V (14/40 clones); G48V, V82A (18/40 clones); G48V, L90S (2/40 clones); G48V, 154T, V82A (1/40 clones); G48M (1/40 clones); G48V, Q61H (1/40 clones); V13I, G48V (1/40 clones); G48V, F53L, V82A (1/40 clones); and G48V, V82A, C95Y (1/40 clones). RFR2 represents a mixture of resistant strains obtained by cloning RFR by three rounds of growth at limiting dilution. RFR2 comprises a mixture of viral strains having protease genotypes of G48V, V82A (13/15 clones); G17E, G48V, V82A (1/15 clones); and G48V, V82A, N37D, N88D (1/15 clones). RFRR represents a mixture of resistant strains obtained by selection of RF against the compounds of Examples 1 and 2 and then cloning by three rounds of growth at limiting dilution. RFRR comprises a mixture of viral strains having protease genotypes of G48V, 154T, L63P, V82A (7/9 clones); G48V, 154T, L63P, V82A, N88S (1/9 clones); and G48V, 154T, L63P, G73M, V82A (1/9 clones). SF162 represents the HIV-1 strain SF-162 and SF162R represents a mixture of resistant strains obtained by selection of SF162 against the compound of Example 1. SF162R comprises a mixture of viral strains having protease genotypes of M461, F53L, L63P, A71V, N88D (2/3 clones); and M46I, F53L, L63P, A71V, N88D, Q92R (1/3 clones). 89-959 represents the HIV-1 strain 89-959 and 89-959R represents a mixture of resistant strains obtained by selection of 89-959 against the compound of Example 2. 89-959R comprises a mixture of viral strains having protease genotypes of N88S (4/5 clones); and D25N, T26A, D30N, D37N, R41K, G73D, R87K, N88S (1/4 clones). NL4 represents the HIV-1 strain HIV-1NL4-3. NL4(G48V) represents a strain having a synthetically generated site-directed mutation in the protease from glycine to valine at amino acid position number 48. NL4(I84V) represents a strain having a synthetically generated site-directed mutation in the protease from isoleucine to valine at amino acid position number 84. NL4(R8Q,M46I) represents a strain having synthetically generated site-directed mutations in the protease from arginine to glutamine at amino acid position number 8 and methionine to isoleucine at amino acid position number 46. NL4(P22-538) represents a mixture of resistant strains obtained by selection of HIV-1NL4-3 against the compound of Example 10 after 22 passages comprising protease genotypes M46I, L63P, A71V, V82F, I84V (4/10); M46I, L63P, V82F, I84V (3/10); and M46I, A71V, V82F, I84V (3/10). NL4(P37-538) represents resistant strains obtained by selection of HIV-1NL4-3 against the compound of Example 10 after 37 passages comprising protease genotype M46I, L63P, A71V, 184A. NL4(538/524) represents resistant strains obtained by selection of NL4(P22-538) against the compound of Example 5 after 24 passages comprising protease genotype M46I, L63P, A71V, 184A. NL4(538/P7-AG) represents a mixture of resistant strains obtained by selection of NL4(P22-538) against the compound of Example 12 after 7 passages comprising protease genotypes M46I, L63P, A71V, 184A; and V321, V82I. NL4(538/P24-AG) represents resistant strains obtained by selection of NL4(P22-538) against the compound of Example 12 after 24 passages comprising protease genotype M46I, L63P, A71V, 184A. […]

The subject of experiment [4] is NL4(P37-538). Description: Viral isolate resistance assay per Markowitz et al., NL4(P37-538). As to conditions: Human immunodeficiency virus 1; Table 9; selected against Example 10, 37 passages; read-out: Virus Isolate (EC50 nM) NL4(P37-538). The source says: RF represents the HIV-1 strain HIV-LRF and RFR represents a mixture of resistant strains obtained by selection of RF against the compound of Example 1. RFR comprises a mixture of viral strains having protease genotypes of G48V (14/40 clones); G48V, V82A (18/40 clones); G48V, L90S (2/40 clones); G48V, 154T, V82A (1/40 clones); G48M (1/40 clones); G48V, Q61H (1/40 clones); V13I, G48V (1/40 clones); G48V, F53L, V82A (1/40 clones); and G48V, V82A, C95Y (1/40 clones). RFR2 represents a mixture of resistant strains obtained by cloning RFR by three rounds of growth at limiting dilution. RFR2 comprises a mixture of viral strains having protease genotypes of G48V, V82A (13/15 clones); G17E, G48V, V82A (1/15 clones); and G48V, V82A, N37D, N88D (1/15 clones). RFRR represents a mixture of resistant strains obtained by selection of RF against the compounds of Examples 1 and 2 and then cloning by three rounds of growth at limiting dilution. RFRR comprises a mixture of viral strains having protease genotypes of G48V, 154T, L63P, V82A (7/9 clones); G48V, 154T, L63P, V82A, N88S (1/9 clones); and G48V, 154T, L63P, G73M, V82A (1/9 clones). SF162 represents the HIV-1 strain SF-162 and SF162R represents a mixture of resistant strains obtained by selection of SF162 against the compound of Example 1. SF162R comprises a mixture of viral strains having protease genotypes of M461, F53L, L63P, A71V, N88D (2/3 clones); and M46I, F53L, L63P, A71V, N88D, Q92R (1/3 clones). 89-959 represents the HIV-1 strain 89-959 and 89-959R represents a mixture of resistant strains obtained by selection of 89-959 against the compound of Example 2. 89-959R comprises a mixture of viral strains having protease genotypes of N88S (4/5 clones); and D25N, T26A, D30N, D37N, R41K, G73D, R87K, N88S (1/4 clones). NL4 represents the HIV-1 strain HIV-1NL4-3. NL4(G48V) represents a strain having a synthetically generated site-directed mutation in the protease from glycine to valine at amino acid position number 48. NL4(I84V) represents a strain having a synthetically generated site-directed mutation in the protease from isoleucine to valine at amino acid position number 84. NL4(R8Q,M46I) represents a strain having synthetically generated site-directed mutations in the protease from arginine to glutamine at amino acid position number 8 and methionine to isoleucine at amino acid position number 46. NL4(P22-538) represents a mixture of resistant strains obtained by selection of HIV-1NL4-3 against the compound of Example 10 after 22 passages comprising protease genotypes M46I, L63P, A71V, V82F, I84V (4/10); M46I, L63P, V82F, I84V (3/10); and M46I, A71V, V82F, I84V (3/10). NL4(P37-538) represents resistant strains obtained by selection of HIV-1NL4-3 against the compound of Example 10 after 37 passages comprising protease genotype M46I, L63P, A71V, 184A. NL4(538/524) represents resistant strains obtained by selection of NL4(P22-538) against the compound of Example 5 after 24 passages comprising protease genotype M46I, L63P, A71V, 184A. NL4(538/P7-AG) represents a mixture of resistant strains obtained by selection of NL4(P22-538) against the compound of Example 12 after 7 passages comprising protease genotypes M46I, L63P, A71V, 184A; and V321, V82I. NL4(538/P24-AG) represents resistant strains obtained by selection of NL4(P22-538) against the compound of Example 12 after 24 passages comprising protease genotype M46I, L63P, A71V, 184A. NLA(P19-003) represents resistant strains obtained by selection of HIV-1^NL4-3 against the compound of Example 9 after 19 passages comprising protease genotype R8K, M46I. NL4(P34-003) represents resistant strains obtained by selection of HIV-1^NL4-3 against the compound of Example 9 after 34 passages comprising protease genotype R8K, M46I, L63P, A71V, L90M.
The viral isolate resistance results summarized in Tables 7-11 were generated according to the assay procedures described by Markowitz et al., Journal of Virology, vol. […]

In experiment [5] the test system is NL4(538/524). Put plainly: Viral isolate resistance assay per Markowitz et al., NL4(538/524). As to conditions: Human immunodeficiency virus 1; Table 10; NL4(P22-538) selected against Example 5, 24 passages.
Excerpt: as §2

Experiment [6] concerns NL4(538/P24-AG). Description: Viral isolate resistance assay per Markowitz et al., NL4(538/P24-AG). Conditions: Human immunodeficiency virus 1; Table 10; NL4(P22-538) selected against Example 12, 24 passages.
Excerpt: as §2

On to `CC(C)(C)NC(=O)[C@@H]1CC2CCCC[C@@H]2CN1C[C@@H](O)[C@H](Cc1ccccc1)NC(=O)[C@H](CC(N)=O)NC(=O)c1ccc2ccccc2n1` (stereo in doubt) [Example 6, N-tert-Butyl decahydro-2-[2(R)-hydroxy-4-phenyl-3(S)-[[N-(2-quinolylcarbonyl)-L-asparaginyl]amino]butyl]-(4aR,8aS)-isoquinoline-3(S)-carboxamide], for which the EC90 in experiment [1] was determined as 150 nM; in experiment [2], 90 nM. Moreover, the EC50 in experiment [3] was 150 nM; in experiment [4], 2400 nM; in experiment [5] it was 2400 nM; in experiment [6], 2400 nM.

On to `CC(C)(C)NC(=O)[C@@H]1CN(Cc2cccnc2)CCN1C[C@@H](O)C[C@@H](Cc1ccccc1)C(=O)N[C@H]1c2ccccc2C[C@H]1O` [Example 5, N-(2(R)-Hydroxy-1(S)-indanyl)-2(R)-phenylmethyl-4(S)-hydroxy-5-(1-(4-(3-pyridylmethyl)-2(S)-N′-(t-butylcarboxamido)-piperazinyl))-pentaneamide], for which the values for the EC90 in experiment [1] and in experiment [2] were 160 nM and 640 nM, respectively. For the same compound, the EC50 is 800 nM in experiment [3], 6400 nM in experiment [4], 6400 nM in experiment [5] and 6400 nM in experiment [6].

In general, EC90 refers to the point of the concentration-response curve where the effect stands at 90%. What is called EC50 is the concentration that produces a half-maximal response.
